The source of these data is US20160318856A1, “Substituted Urea eIF2alpha Kinase Activators” (THE BRIGHAM AND WOMEN'S HOSPITAL, INC., priority 2013, published 2016).

As a reminder, the IC50 is the midpoint of a concentration-inhibition curve. Read a low IC50 as inhibition by little substance.

Each structure is given as a SMILES string.

Assay type in all cases: cell-based
In one experiment the test system is RAMOS. Briefly: cell proliferation assay, RAMOS. To be noted: Homo sapiens, Lymphoma. On the procedure: (§1) Cells were seeded in 96-well plates and maintained for 5 days in the presence of 0.5 to 20 μM of individual compound, and cell proliferation was measured by the sulforhodamine B (SRB) assay as described previously (see, for example, Palakurthi, S. S. et al. Cancer Research 2000, 60(11), 2919-2925). Briefly, at the end of a 5-day treatment, cells were fixed in 10% cold trichloroacetic acid. Cell number was estimated by measuring the remaining bound dye of sulforhodamine B after washing. The percentage of growth was calculated by using the equation: 100×[(T−T0)/(C−T0)], where T and C represent the absorbance in treated and control cultures at Day 5, and T0 at time zero, respectively. If T is less than T0, cell death has occurred and can be calculated from 100×[(T−T0)/T0].

For another experiment, the system named is HEP B3. Briefly: cell proliferation assay, HEP B3. To be noted: HEP B3, Liver. The protocol:
as §1

Experiment [1] has as its system CRL-2813 human melanoma cancer cells transfected with HRI-targeting or non-targeting siRNA. Kind of experiment: cell proliferation (SRB) assay after HRI knockdown. To be noted: CRL-2813 cells, FIG. 10.

As for `O=C(Nc1cccc(C(F)(F)F)c1)NC1CCC(Oc2ccc(OC(F)(F)F)cc2)CC1` (stereo not drawn) [Compound I-17, 1-(4-(4-(trifluoromethoxy)phenoxy)cyclohexyl)-3-(3-(trifluoromethyl)phenyl)urea], the IC50 was determined as 800 nM in the experiment with RAMOS and 1800 nM in the experiment with HEP B3. Besides, the “fold higher IC50 values in cells transfected with HRI-targeting siRNA vs. non-targeting siRNA” value in experiment [1] is roughly 6 fold.
